Reference: patent US7767240B2, “Microbiological control in poultry processing” (priority 2001, dated 2010)

Experiments:
Salmonella = Salmonella positive samples, simulated USDA HACCP detection (Example 7); format: cell-based, Salmonella enteritidis; settings: 20 ppm (Cl2 equivalent) during chilling; for Salmonella positive samples (Number 51): birds inoculated with Salmonella prior to chilling, control 21/51; for Salmonella positive samples (%): control 41.18%
Description: After normal processing of 56-day-old birds, carcasses were immersed first in a warm bath containing 10^4 per mL Escherichia coli, 10^4 per mL Salmonella enteritidis, 10^4 per mL Pseudomonas aeruginosa, 10^4 per mL Campylobacter jejuni, and 10^4 per mL spoilage bacteria each from two strains (Listeria monocytogenes and Shigella sonnei). Carcasses were then immersed in a chill tank “soup”, containing normal organic fluids (blood, fat, skin, and meat particles) and containing various disinfectants (termed test materials). These whole bird bacteria count tests were conducted at pH 8. The effect of the test compounds on skin pigmentation was determined by use of Minolta Color Meter L value or Lightness, a value or redness and b value or yellowness. Post-chilling skin bacteria of various strains were determined over a 20-day period. Spoilage, using sensory odors as a model, determined time required to create a putrid/ammonia-like odor. After salmonella infection in chill tanks, USDA HACCP salmonella detection was simulated and reported.
DBDMH and BCDMH stock solutions and diluted test solutions (20 ppm Cl2 equivalent), a bacteria stock solution, and a “chicken soup” were prepared as in Example 3 except that the Stabrom® 909 biocide concentrate was diluted by adding 30 mL per liter of water just prior to application. This diluted solution was sprayed on the birds, both inside and outside, in quantities of 200 mL per bird. In addition, the bacterial broth treatments, the whole bird wash sampling procedure, and the methodologies used for quantitative or qualitative determinations for bacterial organisms were conducted as in Example 3.
The details concerning the trial events used as well as the detailed experimental design used in these tests were the same as described in Example 6. The only exceptions were: • a) In the case of the birds of Test Group 5 (note Table 38), while the carcass was still warm, the 10 birds were each sprayed both internally and externally, using a misting hand-held nozzle, with 200 mL of the 3% solution of Stabrom 909 biocide (SSBC). […] The spray was allowed to stay on the warm carcasses for 60 seconds. • b) The treatment on sampling day 0 of 102 total of the remaining 110 carcasses from each treatment involving “whole bird” washing and Salmonella detection, all as described in Example 6, was applied only to the birds of Test Groups 1-4 (note Table 38).

Escherichia coli = assay: AOAC test method, kill of bacterial culture; format: cell-based; settings: for concentration required to achieve complete kill within 30 seconds: Escherichia coli, AOAC test
Description: One such series of tests involved determinations of microbiological control against Escherichia coli bacteria. Another set of tests involved determinations of microbiological control against Enterococcus faecium. In each case, comparative tests were carried out in the same manner utilizing the AOAC test method. Such test involves exposing a culture of the microorganism to various concentrations of a test solution prepared from an aqueous stock solution of the compound under test. At various time intervals the halogen in the test suspensions is chemically neutralized, and the amount of viable bacteria remaining is enumerated by plating onto nutrient agar and incubating for 2 days at 37° C. Results are expressed at the log10 colony forming units (CFU). The concentration of the compound required to achieve complete kill (i.e., no viable bacteria remain) within 30 seconds is determined in the test.
Table 43 summarizes the data obtained in the tests using respectively, 1,3-dibromo-5,5-dimethylhydantoin (DBDMH) and N,N′-bromochloro-5,5-dimethylhydantoin (BCDMH) and in which the microorganism in each case was Escherichia coli. It can be seen that 1,3-dibromo-5,5-dimethylhydantoin passed the test at one milligram of bromine, as […] per liter of water, as evidenced by the complete kill within 30 seconds, whereas 1,3-bromochloro-5,5-dimethylhydantoin required two milligrams of bromine, as Br2, per liter of water to achieve complete kill within 30 seconds.

[1] = format: physicochemical
Description: Another mode of applying the microbiocidally-effective amounts of solid-state microbiocides of these embodiments of the invention is to cause the microbiocide to be leached into water streams passing through conduits and into tanks or other washing devices utilized in the processing of the poultry. For example, suitable solid forms of the microbiocide, preferably a bromine-based microbiocide, such as tablets, briquettes, pellets, nuggets, or granules are placed in suitable feeding devices through which a stream of water is passed. The passage of the water through the bed of the microbiocide results in the stream continuously dissolving small quantities of the microbiocide to thereby provide microbiocidally effective amounts of the microbiocide in the water. 1,3-Dibromo-5,5-dimethylhydantoin is especially preferred for use in this mode of application because of its relatively low solubility and thus relatively slow rate of dissolution in water at ambient room temperatures. This translates into relatively long periods of use before need of refilling the device holding the solids.

[2] = 0.5 mg/L as Br2, contact time 30 sec
[3] = 0.5 mg/L as Br2, contact time 1 min
[4] = 0.5 mg/L as Br2, contact time 2 min
[5] = 0.5 mg/L as Br2, contact time 3 min
[6] = 0.5 mg/L as Br2, contact time 4 min
[7] = 0.5 mg/L as Br2, contact time 5 min
[8] = 0.5 mg/L as Br2, contact time 10 min
[9] = 1.0 mg/L as Br2, contact time 30 sec
[10] = 1.0 mg/L as Br2, contact time 1 min
[11] = 1.0 mg/L as Br2, contact time 2 min
[12] = 1.0 mg/L as Br2, contact time 3 min
[13] = 1.0 mg/L as Br2, contact time 4 min
[14] = 1.0 mg/L as Br2, contact time 5 min
[15] = 1.0 mg/L as Br2, contact time 10 min
[16] = 2.0 mg/L as Br2, contact time 30 sec
[17] = 2.0 mg/L as Br2, contact time 1 min
[18] = 2.0 mg/L as Br2, contact time 2 min
[19] = 2.0 mg/L as Br2, contact time 3 min
[20] = 2.0 mg/L as Br2, contact time 4 min
[21] = 2.0 mg/L as Br2, contact time 5 min
[22] = 2.0 mg/L as Br2, contact time 10 min

Compound	Salmonella positive samples (Number 51) (Salmonella)	Salmonella positive samples (%) (Salmonella)	Log10 CFU Recovered (Escherichia coli; [2]) [Log10 CFU]	Log10 CFU Recovered (Escherichia coli; [3]) [Log10 CFU]	Log10 CFU Recovered (Escherichia coli; [4]) [Log10 CFU]	Log10 CFU Recovered (Escherichia coli; [5]) [Log10 CFU]	Log10 CFU Recovered (Escherichia coli; [6]) [Log10 CFU]	Log10 CFU Recovered (Escherichia coli; [7]) [Log10 CFU]	Log10 CFU Recovered (Escherichia coli; [8]) [Log10 CFU]	Log10 CFU Recovered (Escherichia coli; [9]) [Log10 CFU]	Log10 CFU Recovered (Escherichia coli; [10]) [Log10 CFU]	Log10 CFU Recovered (Escherichia coli; [11]) [Log10 CFU]	Log10 CFU Recovered (Escherichia coli; [12]) [Log10 CFU]	Log10 CFU Recovered (Escherichia coli; [13]) [Log10 CFU]	Log10 CFU Recovered (Escherichia coli; [14]) [Log10 CFU]	Log10 CFU Recovered (Escherichia coli; [15]) [Log10 CFU]	Log10 CFU Recovered (Escherichia coli; [16]) [Log10 CFU]	Log10 CFU Recovered (Escherichia coli; [17]) [Log10 CFU]	Log10 CFU Recovered (Escherichia coli; [18]) [Log10 CFU]	Log10 CFU Recovered (Escherichia coli; [19]) [Log10 CFU]	further results
CC1(C)C(=O)N(Cl)C(=O)N1Br [BCDMH, N,N′-bromochloro-5,5-dimethylhydantoin]	6/51	11.76	>4.48	4.46	1.65	0	0	0	0	>4.48	0.7	0	0	0	0	0	0	0	0	0	Log10 CFU Recovered (Escherichia coli; [20]): 0 Log10 CFU; Log10 CFU Recovered (Escherichia coli; [21]): 0 Log10 CFU; Log10 CFU Recovered (Escherichia coli; [22]): 0 Log10 CFU; concentration required to achieve complete kill within 30 seconds (Escherichia coli): two; solubility in water [1]: 890 ppm expressed as Cl2
CC1(C)C(=O)N(Br)C(=O)N1Br [DBDMH, 1,3-dibromo-5,5-dimethylhydantoin]	1/51	1.96	>4.48	1.70	0	0	0	0	0	0	0	0	0	0	0	0	0	0	0	0	Log10 CFU Recovered (Escherichia coli; [20]): 0 Log10 CFU; Log10 CFU Recovered (Escherichia coli; [21]): 0 Log10 CFU; Log10 CFU Recovered (Escherichia coli; [22]): 0 Log10 CFU; concentration required to achieve complete kill within 30 seconds (Escherichia coli): one; solubility in water [1]: 405 ppm expressed as Cl2
